Measured values as given in patent US20070123460A1, “Probiotic compounds from Lactobacillus GG and uses therefor” (THE UNIVERSITY OF CHICAGO, priority 2005, published 2007).

Tested on: Hsp72
Test: Hsp72 induction in YAMC cells, Western blot
Format: cell-based, mouse
Conditions: inhibitor 2 hours before LGG-CM (15 minutes); harvest 4 hours later; SB203580 20 μM, SP600125 20 μM, PD98059 50 μM
Description: Prior to each study, cells were plated at a density of 2×10^5 per 60 mm tissue culture dish. For RNA preparation, cells were plated at a density of 7.5×10^5 cells per p100 mm dish. After 24 hours of growth at 33° C., the medium was replaced with IFN-free media and cells were moved to 37° C. (non-permissive conditions) for 24 hours to allow development of the differentiated colonocyte phenotype. […] Heat shock controls were heat-shocked at 42° C. for 23 minutes and then left at 37° C. for 2 hours before harvest.
Intestinal epithelial cells were treated with conditioned media from the probiotic LGG and then assayed for inducible heat shock protein expression. For Western blot analyses of expression, cells were washed twice and then scraped in ice-cold PBS (137 mM NaCl, 2.7 mM KCl, 8 mM Na2HPO4, pH 7.4). Cells were pelleted (14,000×g for 20 seconds at room temperature), then resuspended in ice-cold lysis buffer (10 mM Tris, pH 7.4, 5 mM MgCl2, 50 U/ml each of DNAse and RNAse, plus complete protease inhibitor cocktail (Roche Molecular Biochemicals, Indianapolis, Ind.)). Protein concentrations were determined using the bicinchoninic acid procedure (Smith et al., 1985). Samples were heated to 75° C. for 5 minutes after addition of 3× Laemmli Stop buffer, then stored at −80° C. until use.
Twenty micrograms of protein per lane were resolved on 12.5% SDS-PAGE. […]

COc1cccc(-c2cc(=O)c3ccccc3o2)c1N [PD98059]
inhibition of LGG-CM-induced Hsp72 expression: more modest effect
